Test results reported in US10131652B2, “Pyrimidinyloxy benzene derivatives as herbicides” (E. I. DU PONT DE NEMOURS AND COMPANY, priority 2014, dated 2018).
Like-named read-outs stand apart in the source and are kept apart here.

Experiments:
Format in all cases: in vivo
[1] = test system: Italian ryegrass (Lolium multiflorum); assay: Test B pre-/postemergence plant response
Outline: (§1)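 Scoring used a 0–100 scale (100 = complete control) by visual comparison with untreated plants after approximately 10 days in the greenhouse. Compounds, in surfactant-containing non-phytotoxic solvent, were sprayed onto soil at planting or onto 2–10 cm seedlings.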

kochia (Kochia scoparia) = assay: Test B pre-/postemergence plant response
Outline: as §1

[2] = test system: ragweed (common ragweed, Ambrosia elatior); assay: Test B pre-/postemergence plant response
Outline: as §1

[3] = test system: Italian ryegrass (Lolium multiflorum); assay: Test D pre-/postemergence plant response; settings: Lolium multiflorum; for pest or weed control at 31 g/ha: 31 g ai/ha; for pest or weed control at 62 g/ha: 62 g ai/ha; for pest or weed control at 125 g/ha: 125 g ai/ha
Outline: (§2)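 Seeds were planted in a loam and sand blend and sprayed preemergence. In parallel, seedlings grown in peat moss/vermiculite medium were sprayed postemergence at 2 to 18 cm height. Both used a surfactant-containing non-phytotoxic solvent. Greenhouse ratings at 13 to 15 days used a 0–100 control scale.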

[4] = test system: barnyardgrass (Echinochloa crus-galli); assay: Test D pre-/postemergence plant response; settings: Echinochloa crus-galli; for pest or weed control at 16 g/ha: 16 g ai/ha; for pest or weed control at 31 g/ha: 31 g ai/ha; for pest or weed control at 62 g/ha: 62 g ai/ha; for pest or weed control at 125 g/ha: 125 g ai/ha
Outline: as §2

[5] = test system: blackgrass (Alopecurus myosuroides); assay: Test D pre-/postemergence plant response; settings: Alopecurus myosuroides; for pest or weed control at 16 g/ha: 16 g ai/ha; for pest or weed control at 31 g/ha: 31 g ai/ha; for pest or weed control at 62 g/ha: 62 g ai/ha; for pest or weed control at 125 g/ha: 125 g ai/ha
Outline: as §2

corn (Zea mays) = assay: Test D pre-/postemergence plant response; settings: Zea mays; for Corn plant response rating (crop injury, 0 = no effect, 100 = complete kill) at 62 g/ha: 62 g ai/ha
Outline: as §2

[6] = test system: galium (catchweed bedstraw, Galium aparine); assay: Test D pre-/postemergence plant response; settings: Galium, post-emergence, Postemergence
Outline: as §2

[7] = 31 g ai/ha, Preemergence, 0 to 100 scale where 0 is no effect and 100 is complete control
[8] = 125 g ai/ha, postemergence, 0 to 100 scale, 0 no effect, 100 complete control
[9] = Postemergence, 31 g ai/ha, 0 to 100 scale (0 no effect, 100 complete control)
[10] = Preemergence, 125 g ai/ha, 0 to 100 scale (0 no effect, 100 complete control)
[11] = post-emergence, Postemergence, scale 0 to 100, 0 no effect, 100 complete control, read-out: Plant response rating, Ryegrass, Italian
[12] = pre-emergence, Preemergence, scale 0 to 100 (0 no effect, 100 complete control), read-out: Plant response rating, Ryegrass, Italian
[13] = post-emergence, Postemergence, scale 0 to 100 (0 no effect, 100 complete control), read-out: Barnyardgrass plant response rating
[14] = post-emergence, Postemergence, scale 0 to 100, 0 no effect, 100 complete control, read-out: Plant response rating, Barnyardgrass
[15] = pre-emergence, Preemergence, scale 0 to 100 (0 no effect, 100 complete control), read-out: Plant response rating, Barnyardgrass
[16] = post-emergence, Postemergence, scale 0 to 100 (0 no effect, 100 complete control), read-out: Blackgrass plant response rating
[17] = post-emergence, Postemergence, scale 0 to 100, 0 no effect, 100 complete control, read-out: Plant response rating, Blackgrass
[18] = pre-emergence, Preemergence, scale 0 to 100 (0 no effect, 100 complete control), read-out: Plant response rating, Blackgrass

Q: Which results are given for `Fc1cccc(Oc2ncc(Cl)cn2)c1-c1cc(C(F)F)no1` [Compound 144, 5-chloro-2-[2-[3-(difluoromethyl)-5-isoxazolyl]-3-fluorophenoxy]pyrimidine]?
A: Plant response rating, Ryegrass, Italian [1, 7]: 0; Plant response rating, Ryegrass, Italian [1, 8]: 100; Plant response rating, Ryegrass, Italian [1, 9]: 20; Ryegrass, Italian plant response rating [1, 10]: 90; Plant response rating, Kochia (kochia (Kochia scoparia); [7]): 90; Plant response rating, Kochia (kochia (Kochia scoparia); [8]): 100; Plant response rating, Kochia (kochia (Kochia scoparia); [9]): 100; Kochia plant response rating (kochia (Kochia scoparia); [10]): 100; Plant response rating, Ragweed [2, 7]: 0; Plant response rating, Ragweed [2, 8]: 60; Plant response rating, Ragweed [2, 9]: 20; Ragweed plant response rating [2, 10]: 50; pest or weed control at 31 g/ha ([3]; post-emergence, Postemergence, scale 0 to 100 (0 no effect, 100 complete control), read-out: Ryegrass, Italian plant response rating): 5%; pest or weed control at 62 g/ha [3, 11]: 10%; pest or weed control at 125 g/ha [3, 11]: 10%; pest or weed control at 125 g/ha ([3]; pre-emergence, Preemergence, read-out: Plant response rating (scale 0 to 100), Ryegrass, Italian): 98%; pest or weed control at 16 g/ha ([3]; pre-emergence, Preemergence, 16 g ai/ha, scale 0 to 100 (0 no effect, 100 complete control), read-out: Plant response rating, Ryegrass, Italian): 5%; pest or weed control at 31 g/ha [3, 12]: 60%; pest or weed control at 62 g/ha [3, 12]: 80%; pest or weed control at 16 g/ha [4, 13]: 5%; pest or weed control at 31 g/ha [4, 13]: 5%; pest or weed control at 62 g/ha [4, 14]: 10%; pest or weed control at 125 g/ha [4, 14]: 15%; pest or weed control at 125 g/ha ([4]; pre-emergence, Preemergence, read-out: Plant response rating (scale 0 to 100), Barnyardgrass): 100%; pest or weed control at 16 g/ha [4, 15]: 70%; pest or weed control at 31 g/ha [4, 15]: 80%; pest or weed control at 62 g/ha [4, 15]: 100%; pest or weed control at 16 g/ha [5, 16]: 5%; pest or weed control at 31 g/ha [5, 16]: 15%; pest or weed control at 62 g/ha [5, 17]: 15%; pest or weed control at 125 g/ha [5, 17]: 75%; pest or weed control at 125 g/ha ([5]; pre-emergence, Preemergence, read-out: Plant response rating (scale 0 to 100), Blackgrass): 95%; pest or weed control at 16 g/ha [5, 18]: 55%; pest or weed control at 31 g/ha [5, 18]: 95%; pest or weed control at 62 g/ha [5, 18]: 95%; plant injury at 16 g/ha (corn (Zea mays); post-emergence, Postemergence, 16 g ai/ha, scale 0 to 100 (0 no effect, 100 complete control), read-out: Corn plant response rating): 5%; plant injury at 31 g/ha (corn (Zea mays); post-emergence, Postemergence, 31 g ai/ha, scale 0 to 100 (0 no effect, 100 complete control), read-out: Corn plant response rating): 5%; Corn plant response rating (crop injury, 0 = no effect, 100 = complete kill) at 62 g/ha (corn (Zea mays); post-emergence, Postemergence, scale 0 to 100, 0 no effect, 100 complete control): 10%; Corn plant response rating (crop injury, 0 = no effect, 100 = complete kill) at 125 g/ha (corn (Zea mays); post-emergence, Postemergence, 125 g ai/ha, scale 0 to 100, 0 no effect, 100 complete control): 5%; plant injury at 125 g/ha (corn (Zea mays); pre-emergence, Preemergence, 125 g ai/ha, read-out: Plant response rating (scale 0 to 100), Corn): 65%; Corn plant response rating (crop injury, 0 = no effect, 100 = complete kill) at 16 g/ha (corn (Zea mays); pre-emergence, Preemergence, 16 g ai/ha, scale 0 to 100 (0 no effect, 100 complete control)): 0%; Corn plant response rating (crop injury, 0 = no effect, 100 = complete kill) at 31 g/ha (corn (Zea mays); pre-emergence, Preemergence, 31 g ai/ha, scale 0 to 100 (0 no effect, 100 complete control)): 5%; Corn plant response rating (crop injury, 0 = no effect, 100 = complete kill) at 62 g/ha (corn (Zea mays); pre-emergence, Preemergence, scale 0 to 100 (0 no effect, 100 complete control)): 15%; pest or weed control at 31 g/ha ([6]; 31 g ai/ha, scale 0 to 100 (0 no effect, 100 complete control), read-out: Galium plant response rating): 85%; pest or weed control at 62 g/ha ([6]; 62 g ai/ha, scale 0 to 100, 0 no effect, 100 complete control, read-out: Plant response rating, Galium): 90%; pest or weed control at 125 g/ha ([6]; 125 g ai/ha, scale 0 to 100, 0 no effect, 100 complete control, read-out: Plant response rating, Galium): 95%
